Key:
adhesions = details: local delivery in gel (NaCMC) formulations at the surgical site; cited from earlier work
[1] = system: gastric emptying and intestinal motility; assay: Charcoal transit model of postoperative ileus after abdominal surgery with cecal manipulation; format: in vivo, rat; details: charcoal distance 4 h after oral meal, percent of full intestinal length, male Sprague Dawley rats
From the text: The charcoal transit model is an accetable and established model to study the effects of abdominal surgery on intestinal motility. We followed the procedure as described by De Winter et al. (1997) (Reference: Effect of adrenergic and nitrergic blockade on experimental ileus in rats. British Journal of Pharmacology (1997) 120, 464-468. Benedicte Y. De Winter, Guy E. Boeckxstaens, Joris G. De Man, Tom G. Moreels, Arnold G. Herman & Paul A. Pelckmans). The model simulates the abdominal procedure in human and tests for gastric emptying and intestinal motility by the transfer of a charcoal meal fed to the animals.
Male Sprague Dawley rats, weighing 250-275 g (8 in group) were anesthetized with a xylazine/ketamine cocktail, injected IM, the abdomen was shaved and disinfected with alcohol and Betadyne. A 2.5 cm incision was made from the xyphoid process caudally. The intestinal contents was exteriorized onto wet gauze. The cecum was manipulated gently for 1 minute. The abdominal contents were replaced, the treatment was applied and the body wall closed with 4-0 PDS for the fascia and muscle layers. The skin was closed with wound clips. Treatment groups included two control groups, surgery (incision only) and naïve, and […], high and low dose of Tranilast gel, high and low dose of Tranilast ORC, as well as gel alone and ORC alone. 8 rats were included in each group with a total of 64 rats. The high and low dose Tranilast gel and gel alone treatments were prepared as described in Example 1. The high and low dose Tranilast ORC and ORC alone treatments were prepared as described in Example 2.
The rats were treated with an oral solution of charcoal (10%) in acacia gum (2%). Four hours following oral administration rats were euthanized with Euthasole. The intestines were exteriorized and the distance traveled by the charcoal meal was measured as well as the full length of the intestines (from the pylorus through the anus). Results are expressed as percent of distance traveled relative to the full length of the intestines.

For `COc1ccc(/C=C/C(=O)Nc2ccccc2C(=O)O)cc1OC` [Tranilast], the “Effects on wound healing at the surgical sites” value (adhesions) is listed as “no obvious effects on wound healing”, the “% GI Transfer” value ([1]; Gel preparation (3% Na-CMC), Tranilast high dose 18.0 mg applied locally) is listed as 93.04% and the “% GI Transfer” value ([1]; Gel preparation (3% Na-CMC), Tranilast low dose 1.8 mg applied locally) is listed as 90.68%. For the same compound, the “% GI Transfer” value ([1]; ORC preparation (INTERCEED mesh), Tranilast high dose 18.0 mg applied locally) was 62.18% and the “% GI Transfer” value ([1]; ORC preparation (INTERCEED mesh), Tranilast low dose 1.8 mg applied locally) was 46.11%.
